The record followed here is patent US11786592B2, “Compositions of cardiolipin adjuvants and methods of use thereof” (The University of Hong Kong, priority 2021, dated 2023).

Structures are written as SMILES.

The subject of assay [1] is BALB/c mice immunized with human quadrivalent influenza vaccine. Type of assay: in vivo. The following applies: 16 days post-immunization; flow cytometry; vaccine plus cardiolipin compared to vehicle or vaccine only; FIG. 3A-3H. A general note: In flow cytometry, cells or beads pass a laser one at a time.
For assay [2] the test system is unchanged. It is filed as in vivo.

Turning to `CCCCC/C=C\C/C=C\CCCCCCCC(=O)OC[C@H](COP(=O)([O-])OCC(O)COP(=O)([O-])OC[C@@H](COC(=O)CCCCCCC/C=C\C/C=C\CCCCC)OC(=O)CCCCCCC/C=C\C/C=C\CCCCC)OC(=O)CCCCCCC/C=C\C/C=C\CCCCC.[Na+].[Na+]` (stereo partly shown) [cardiolipin (C18:2)4], the “cells producing the examined cytokines (IFN-γ, IL-4 and IL-17A) in inguinal lymph nodes” value in assay [1] is listed as “significant increase”. Moreover, in assay [2] (100 μg/kg cardiolipin (C18:2)4 mixed with […] TETRA vaccine (1 microgram HA), intramuscular and subcutaneous, cardiolipin booster at day 10, compared to vehicle or vaccine only), the “accelerated seroconversion (time post-immunization)” value was determined as 7 days. In addition, the “vaccine antigen-specific antibodies in sera” value in assay [2] (13 days post-immunization, 100 μg/kg cardiolipin (C18:2)4 with vaccine, compared to vehicle or vaccine only, FIG. 2A-2B (IgM, IgG)) is given as “significantly higher”. The “subclasses of virus-specific antibodies elicited (Th1/Th2 response)” value in assay [2] (serum IgG, IgG1, IgG2a, IgG2b by ELISA, FIG. 2C-2F) is “elicited both IgG2a and IgG1 subclasses of virus-specific antibodies, indicating a balanced Th1/Th2 response”.
